US9279807B2, “Materials and methods for the treatment of celiac disease” (ALBA THERAPEUTICS CORPORATION, priority 2006, dated 2016)
Entries after “also recorded” stand apart in the source; their conditions may differ. Residues, ends and D or L forms follow the SMILES beside them.

Experiments:
rats = assay: Toxicity studies in rats; type: in vivo, rat
Text: Toxicity studies have been performed in rats and Beagle dogs. […] Any alterations in clinical chemistry, hematology, coagulation, urinalysis and organ weight data were considered coincidental based on absence of dose-response relationships and absence of histopathological changes.

Beagle dogs = assay: Toxicity studies in Beagle dogs; type: in vivo, dog
Text: […] […] Any alterations in clinical pathology profiles were considered coincidental in nature. No alterations in absolute or relative organ weight data were detected.

[1] = biological target: T1, potassium selective IKr current (hERG) (Homo sapiens, UniProt Q12809); assay: hERG test; type: cell-based; conditions: up to 1 ng/mL, stably transfected, normoxic conditions
T1 construct: expressed in transfected cells; host or cells: HEK 203 cells (so in the source)
Text: (§1) Two safety pharmacology studies for cardiotoxicity effects have been performed.

rabbits = assay: Cardiovascular effects in unconscious female rabbits; type: in vivo, rabbit; conditions: intravenous, doses up to 1 mg/kg
Text: as §1

healthy adults [2] = assay: Single dose safety trial in healthy adults (CLIN1001-001); type: in vivo, human
Text: The single dose trial was a double-blind, placebo controlled, randomized trial of 24 healthy adults. […] All AEs reported in this study resolved without concomitant therapy. Headache was the most common AE experienced, reported one time each by 3 (13%) subjects.

healthy adults [3] = assay: Multi-dose safety trial in healthy adults (CLIN1001-003); type: in vivo, human; conditions: 24 healthy adults, 250 μg, 1, or 4 mg or placebo three times a day
Text: The multi-dose trial was a double-blind, placebo controlled, randomized trial of 24 healthy adults. […] Reported AEs were all mild and headache was the most common AE.

[4] = Plasma drug levels, multi-dose trial; type: in vivo, human; conditions: 3 times a day for 10 days; llq 0.5 ng/ml
[5] = Stability of drug substance; type: physicochemical; conditions: room temperature
[6] = Absorption and systemic toxicity in animals, FITC labeling; type: in vivo
[7] = tested on: human peripheral lymphocytes; assay: In vitro chromosome aberration study; conditions: up to 1200 μg, with and without metabolic activation
[8] = tested on: Salmonella and E. coli strains; assay: Ames test (bacterial reverse mutation assay); conditions: up to 5000 μg per plate, with and without metabolic activation
Celiac Disease subjects = assay: Phase IIa multiple dose POC study (CLIN1001-004), safety
Text: Study drug will be dispensed to subjects for fourteen (14) days of treatment. Study drug will be administered three times a day. […] Gluten or gluten placebo will be taken during each meal. Subjects will remain on their gluten-free diet throughout the duration of the trial.
All adverse events reported during the study will be listed, documenting course, severity, and outcome. Adverse events will be summarized by treatment, the MedDRA system organ class, and maximum severity. Laboratory parameters, vital signs, EKG assessments, and physical exam results will be summarized with descriptive statistics as appropriate.

[9] = oral once daily for 28 days up to 1000 mg/kg
[10] = dogs, up to 9 mg/kg daily for 4 weeks
[11] = 24 healthy adults, 3, 12, or 36 mg or placebo, single dose
[12] = CD subjects, 12 mg once daily Days 1-3, N = 14
[13] = Related = Possible, probably, definite combined causalities, 12 mg, N = 14
[14] = Phase IIa, preliminary observations

T1 sequence (Q12809 whole entry): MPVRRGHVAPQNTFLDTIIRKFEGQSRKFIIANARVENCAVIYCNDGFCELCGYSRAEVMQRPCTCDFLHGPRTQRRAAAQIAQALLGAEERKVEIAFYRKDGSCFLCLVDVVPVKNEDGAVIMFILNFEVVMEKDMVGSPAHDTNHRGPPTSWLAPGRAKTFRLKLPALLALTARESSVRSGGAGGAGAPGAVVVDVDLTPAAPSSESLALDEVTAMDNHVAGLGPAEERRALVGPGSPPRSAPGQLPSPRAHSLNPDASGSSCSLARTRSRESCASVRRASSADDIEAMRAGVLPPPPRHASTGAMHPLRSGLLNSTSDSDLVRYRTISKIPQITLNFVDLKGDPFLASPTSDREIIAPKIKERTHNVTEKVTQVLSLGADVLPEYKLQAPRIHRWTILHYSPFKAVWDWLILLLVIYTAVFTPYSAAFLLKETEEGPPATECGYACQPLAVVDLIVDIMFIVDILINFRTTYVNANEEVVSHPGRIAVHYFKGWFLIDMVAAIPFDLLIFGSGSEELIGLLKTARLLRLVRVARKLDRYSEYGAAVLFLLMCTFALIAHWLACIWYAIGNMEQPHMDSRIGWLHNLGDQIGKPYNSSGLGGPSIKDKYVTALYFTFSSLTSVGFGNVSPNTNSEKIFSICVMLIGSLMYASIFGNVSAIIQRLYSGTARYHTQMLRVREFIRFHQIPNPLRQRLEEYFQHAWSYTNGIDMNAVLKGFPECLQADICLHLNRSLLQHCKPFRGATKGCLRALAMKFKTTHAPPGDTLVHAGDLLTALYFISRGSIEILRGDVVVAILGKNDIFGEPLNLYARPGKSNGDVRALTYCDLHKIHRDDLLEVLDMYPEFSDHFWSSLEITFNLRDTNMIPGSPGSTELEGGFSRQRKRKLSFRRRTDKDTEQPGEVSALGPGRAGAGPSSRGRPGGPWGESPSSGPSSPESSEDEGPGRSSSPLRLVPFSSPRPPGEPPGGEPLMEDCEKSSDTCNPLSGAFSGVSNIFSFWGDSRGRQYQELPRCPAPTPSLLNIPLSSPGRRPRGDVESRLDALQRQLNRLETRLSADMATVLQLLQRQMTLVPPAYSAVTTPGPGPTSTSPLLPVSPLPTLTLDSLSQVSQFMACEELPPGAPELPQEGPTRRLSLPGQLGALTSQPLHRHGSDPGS
Text for CD subjects: One cohort of 24 subjects was planned, with a 2:1 randomization (drug:placebo) for once daily dosing on Days 1, 2 and 3. On Day 2, all subjects would receive a 2.5 gram oral gluten challenge in single blind fashion.
Safety measures included monitoring of AEs, standard clinical panels for chemistry, hematology, and urinalysis, pregnancy screening, EKG, vital signs and physical exam findings.
Spontaneous adverse events collected throughout the study were categorized according to WHO adverse reaction terminology and evaluated for duration, intensity, and possible association with the study drug per ICH guidelines. In addition, the following procedures were performed at various points throughout the course of the study: vital signs, complete physical exams, 12-lead electrocardiograms, full clinical (safety) laboratory analyses, serum pregnancy, urine drug screen and HIV and hepatitis serologies.
All adverse events reported during the study were listed, documenting course, severity, and outcome and summarized by treatment, giving the number of subjects who experienced an adverse event, the maximum severity, and body system. GI adeverse events for each arm were tabulated by subject count and compared via Fisher's exact test.
EKG results were classified as normal and abnormal. PR, RR, QRS, QT, and QTc intervals will be carefully examined and abnormalities tabulated.

CC(C)C[C@H](NC(=O)[C@@H](NC(=O)CNC(=O)CN)C(C)C)C(=O)N[C@H](C(=O)N[C@@H](CCC(N)=O)C(=O)N1CCC[C@H]1C(=O)NCC(=O)O)C(C)C [AT-1001] (H-GGVLVQPG-OH)
Body weight gain in recovery group (rats; 28 day study, males at week 8 (recovery week 4)): body weight gain was lower in the dose males at week 8 | Treatment-related findings, 14 day repeat-dose study (rats; oral gavage once daily for 14 days up to 1000 mg/kg): no treatment-related clinical observations, clinical pathology changes, body weight or weight gain changes, organ weight changes, or gross or microscopic tissue changes | Food consumption, body weights/gains, ophthalmic observations (rats; [9]): unaffected by treatment | Gross necropsy or histopathology findings (rats; [9]): No gross necropsy or histopathology findings were considered to be treatment-related | Treatment-related deaths (rats; [9]): No treatment-related deaths occurred | Clinical observations, clinical chemistry, gross postmortem observations (rats; single dose intravenously up to 5 mg/kg): no clinical observations, clinical chemistry changes, or gross postmortem observations | Signs of toxicity (Beagle dogs; Beagle dogs, single dose up to 5 mg/kg intravenously, observed 14 days): no signs of toxicity were observed | Clinical signs of toxicity (Beagle dogs; dogs, enteric-coated beads 20 mg/kg day 1, 40 mg/kg day 2): no clinical signs of toxicity were noted | Total protein and globulin levels (Beagle dogs; dogs, enteric-coated beads 20 mg/kg day 1, 40 mg/kg day 2, 24 hr after 40 mg/kg): slightly elevated | Treatment-related deaths and appearance (Beagle dogs; dogs, enteric-coated beads orally up to 9 mg/kg daily for 4 weeks): No treatment-related deaths occurred and all dogs appeared normal | Body weights, body weight gains, ophthalmic observations and EKG readings (Beagle dogs; [10]): unaffected by treatment | Gross necropsy or histopathology findings (Beagle dogs; [10]): None of the gross necropsy or histopathology findings were considered to be treatment-related | Effect on IKr current [1]: None of the concentrations of AT-1001 caused statistically significant effects | Effects on the EKG (rabbits): no notable effects | Serious adverse events (healthy adults [2]; [11]): No Serious Adverse Events (SAEs) | Severity of adverse events (healthy adults [2]; [11]): mild or moderate in severity | Clinically significant trends (clinical laboratory, vital sign, EKG, physical examination) (healthy adults [2]; single dose trial): No clinically significant treatment-related trends; also recorded: No Clinically Significant trends related to safety | Serious adverse events (healthy adults [3]): No Serious Adverse Events (SAEs) | Severity of adverse events (healthy adults [3]): all mild in severity | Plasma drug levels [4]: No measurable plasma drug levels | Stability [5]: up to 1 year | Passage into the submucosa or the vasculature ([6]; fluorescent FITC labeling): measurable amounts of the antagonist do not cross into the submucosa or the vasculature | Systemic toxicities ([6]; supra-therapeutic dosing in animals): devoid of significant systemic toxicities | Systemic absorption ([6]; supra-therapeutic dosing in animals, multi-particulate oral formulation): not systemically absorbed to any significant extent | solubility: > 1000 µg/mL | Overall safety and tolerability (CD subjects; 12 mg in CD subjects): generally safe, well tolerated | (%) of serious AEs (CD subjects; 12 mg, N = 14): (0) % | Number of serious AEs (CD subjects; 12 mg, N = 14): 0 | Gastrointestinal Disorders, Subject Count (%) (CD subjects; 12 mg, N = 14, p 0.018 vs placebo): 6 (43%) | Number of subjects reporting an AE (CD subjects; CD subjects, 12 mg once daily Days 1-3, 2.5 g gluten Day 2, N = 14): 10 | (%) of subjects discontinued study due to AE (CD subjects; [12]): (0) % | (%) of subjects reporting an AE (CD subjects; [12]): (71) % | Number of subjects discontinued study due to AE (CD subjects; [12]): 0 | Total number of AEs reported (CD subjects; [12]): 32 | Abdominal Discomfort, Subject Count (%) (CD subjects; CD-related, 12 mg, N = 14): 0 (0%) | Constipation, Subject Count (%) (CD subjects; CD-related, 12 mg, N = 14): 0 (0%) | Flatulence, Subject Count (%) (CD subjects; CD-related, 12 mg, N = 14): 2 (14%) | Vomiting, Subject Count (%) (CD subjects; CD-related, 12 mg, N = 14): 3 (21%) | Diarrhoea, Subject Count (%) (CD subjects; CD-related, 12 mg, N = 14, p 0.017 vs placebo): 2 (14%) | Abnormalities in safety laboratory tests, vital signs, ECG, physical examinations (CD subjects; Phase Ib study): no clinically significant abnormalities | Deaths, SAEs, significant AEs, withdrawals due to AEs (CD subjects; Phase Ib study, 21 CD subjects, 12 mg or placebo for three days): no serious adverse events (SAEs); also recorded: no deaths, SAEs, significant AEs, or withdrawals due to AEs | (%) of related AEs (CD subjects; [13]): (3) % | Number of related AEs (CD subjects; [13]): 1 | Dyspepsia, Subject Count (%) (CD subjects; not CD-related, 12 mg, N = 14): 3 (21%) | Eructation, Subject Count (%) (CD subjects; not CD-related, 12 mg, N = 14): 1 (7%) | Gastrooesophageal Reflux, Subject Count (%) (CD subjects; not CD-related, 12 mg, N = 14): 1 (7%) | Nausea, Subject Count (%) (CD subjects; not CD-related, 12 mg, N = 14): 4 (29%) | Stomach Discomfort, Subject Count (%) (CD subjects; not CD-related, 12 mg, N = 14): 2 (14%) | Structural or numerical chromosome aberrations [7]: negative for inducing structural or numerical chromosome aberrations | Mutagenic activity [8]: negative for mutagenic activity | Safety and tolerability of multiple oral doses (Celiac Disease subjects; Phase IIa patient population): demonstrated | Serious adverse events (Celiac Disease subjects; Phase IIa, 0.25-8 mg TID 14 days, preliminary observations): No Serious Adverse Events (SAEs) | Clinically significant trends related to safety (Celiac Disease subjects; [14]): No Clinically Significant trends related to safety | Severity of adverse events (Celiac Disease subjects; [14]): mild or moderate in severity
